Experimental data as given in article PMC2693028 (ChemMedChem, 2008).
Values after ≈ are worked out from the molar mass of the structure shown. Values joined by “and” are separate entries in the source; they are usually repeats but may differ in a detail not shown here. Identical values can stand only once. Like-named read-outs stand apart in the source and are kept apart here.

Columns and labels:
ΔANR B. anthracis [1] = assay: microbe, parasite or virus in culture; type: cell-based, Bacillus anthracis
[2] = tested on: Sterne strain B. anthracis; assay: microbe, parasite or virus in culture; type: cell-based, Bacillus anthracis; conditions: for MIC / MBC: Bacillus anthracis
[3] = tested on: Staphylococcus aureus (ATCC strain 29213); assay: microbe, parasite or virus in culture; type: cell-based; conditions: ATCC29213|MSSA
[4] = tested on: methicillin–resistant Staphylococcus aureus (ATCC strain 43300); assay: microbe, parasite or virus in culture; type: cell-based
[5] = tested on: Enterococcus fecalis (ATCC strain 29212); assay: microbe, parasite or virus in culture; type: cell-based; conditions: for MIC / MBC: Enterococcus, ATCC29212
[6] = tested on: vancomycin–resistant Enterococcus (VRE) (ATCC strain 51299); assay: microbe, parasite or virus in culture; type: cell-based; conditions: for MIC / MBC: Enterococcus, ATCC51299|VRE
[7] = tested on: Listeria monocytogenes (10403S); assay: microbe, parasite or virus in culture; type: cell-based; conditions: for MIC / MBC: Listeria monocytogenes
[8] = tested on: Pseudomonas aeruginosa (ATCC strain 27853); assay: microbe, parasite or virus in culture; type: cell-based; conditions: ATCC27853
[9] = tested on: Klebsiella pneumoniae (ATCC strain 700603); assay: microbe, parasite or virus in culture; type: cell-based; conditions: for MIC / MBC: Klebsiella pneumoniae, ATCC700603
[10] = tested on: Escherchia coli (ATCC strain 25922); assay: microbe, parasite or virus in culture; type: cell-based; conditions: for MIC / MBC: Escherichia coli, ATCC25922
[11] = target: Enoyl reducase (ENR) from Bacillus anthracis (BaENR) (Bacillus anthracis, UniProt A0A6L8PBX8); assay: biochemical; conditions: for inhibition at 1 µM: read-out: % inhibition at 1μM
Sequence of Enoyl reducase (ENR) from Bacillus anthracis (BaENR) (A0A6L8PBX8 1-256): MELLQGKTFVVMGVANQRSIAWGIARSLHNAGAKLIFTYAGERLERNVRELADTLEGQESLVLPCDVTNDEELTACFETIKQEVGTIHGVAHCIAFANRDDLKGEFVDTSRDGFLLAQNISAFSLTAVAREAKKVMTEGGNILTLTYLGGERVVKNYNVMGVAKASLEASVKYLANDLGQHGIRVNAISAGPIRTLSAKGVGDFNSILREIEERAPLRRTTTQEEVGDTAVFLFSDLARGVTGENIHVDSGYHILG

MHS = assay: cells; type: cell-based; conditions: read-out: EC50 against MHS
HeLa cells [12] = assay: cells; conditions: Homo sapiens, read-out: EC50 against HeLa cells
HeLa cells [13] = conditions: human
ΔANR B. anthracis [14] = conditions: cited from earlier work
ENR in S. aurues = conditions: cited from earlier work
PfENR = conditions: cited from earlier work
ENR in E. coli = conditions: cited from earlier work
[15] = Staphylococcus aureus, ATCC43300|MRSA

Compound: O=C(O)c1cn(C2CC2)c2cc(N3CCNCC3)c(F)cc2c1=O [Cipro, reference compound]
- MIC (ΔANR B. anthracis [1]; Bacillus anthracis): 0.1 µg/mL (≈ 0.302 µM)
- MIC [2]: 0.1 µg/mL (≈ 0.302 µM)
- MIC [3]: 0.4 µg/mL (≈ 1.21 µM)
- MIC [4, 15]: 0.5 ± 0.2 µg/mL (≈ 1.51 µM)
- MIC [5]: 0.7 ± 0.1 µg/mL (≈ 2.11 µM)
- MIC [6]: 0.6 ± 0.2 µg/mL (≈ 1.81 µM)
- MIC [7]: 0.9 ± 0.3 µg/mL (≈ 2.72 µM)
- MIC [8]: 0.3 ± 0.1 µg/mL (≈ 0.905 µM)
- MIC [9]: 0.5 ± 0.1 µg/mL (≈ 1.51 µM)
- MIC [10]: 0.1 µg/mL (≈ 0.302 µM)

Compound: O=[N+]([O-])c1ccc(Oc2ccc(Cl)cc2O)c(Cl)c1 [Compound 6, 5-Chloro-2-(2-chloro-4-nitrophenoxy)phenol]
- IC50 ([11]; IC50): 290 nM and 300 nM
- MBC (ΔANR B. anthracis [1]; Bacillus anthracis): 3.1 ± 1.1 µg/mL (≈ 10.3 µM)
- MBC [2]: 3.9 ± 0.8 µg/mL (≈ 13 µM)
- MIC [2]: 1.9 ± 0.3 µg/mL (≈ 6.33 µM)
- MBC [3]: 2.9 ± 1.2 µg/mL (≈ 9.66 µM)
- MIC [3]: 0.1 ± 0.1 µg/mL (≈ 0.333 µM)
- MIC [4]: 0.3 ± 0.3 µg/mL (≈ 1 µM)
- MBC [4, 15]: 0.4 ± 0.1 µg/mL (≈ 1.33 µM)
- MIC [4, 15]: 0.3 µg/mL (≈ 1 µM)
- MBC [5]: 31.3 ± 6.3 µg/mL (≈ 104 µM)
- MIC [5]: 4.4 ± 0.8 µg/mL (≈ 14.7 µM)
- MBC [6]: 37.5 ± 12.5 µg/mL (≈ 125 µM)
- MIC [6]: 5.7 ± 0.6 µg/mL (≈ 19 µM)
- MBC [7]: 14.1 ± 3.9 µg/mL (≈ 47 µM)
- MIC [7]: 2.8 ± 0.3 µg/mL (≈ 9.33 µM)
- MIC [8]: > 25 µg/mL
- MBC [9]: 12.5 µg/mL (≈ 41.7 µM)
- MIC [9]: 1.8 ± 0.4 µg/mL (≈ 6 µM)
- MBC [10]: 12.5 µg/mL (≈ 41.7 µM)
- MIC [10]: 0.3 ± 0.1 µg/mL (≈ 1 µM)
- EC50 (MHS): 9.9 µg/mL (≈ 33 µM)
- EC50 (HeLa cells [12]): 29.3 µg/mL (≈ 97.6 µM)

Compound: CCCc1ccc(Oc2ccc([N+](=O)[O-])cc2Cl)c(O)c1 [Compound 11, 2-(2-Chloro-4-nitrophenoxy)-5-propylphenol]
- IC50 ([11]; IC50): 500 nM
- MBC/MIC (ΔANR B. anthracis [1]): 1.8
- MIC (ΔANR B. anthracis [1]): 2.2 ± 0.0 µg/mL (≈ 7.15 µM)
- MBC (ΔANR B. anthracis [1]; Bacillus anthracis): 3.9 ± 0.8 µg/mL (≈ 12.7 µM)
- MIC (ΔANR B. anthracis [1]; Bacillus anthracis): 1.9 to 3.1 µg/mL (≈ 6.17 to 10.1 µM)
- MBC/MIC [2]: 2.1
- MBC [2]: 3.9 ± 0.8 µg/mL (≈ 12.7 µM)
- MIC [2]: 1.9 µg/mL (≈ 6.17 µM)
- MBC [3]: 2.9 ± 1.2 µg/mL (≈ 9.42 µM)
- MIC [3]: 0.1 ± 0.1 µg/mL (≈ 0.325 µM)
- MBC/MIC [4]: 1.9
- MIC [4]: 0.3 ± 0.3 µg/mL (≈ 0.975 µM)
- MBC [4, 15]: 0.5 ± 0.2 µg/mL (≈ 1.62 µM)
- MIC [4, 15]: 0.3 µg/mL (≈ 0.975 µM)
- MBC/MIC [5]: 2.9
- MBC [5]: 12.5 µg/mL (≈ 40.6 µM)
- MIC [5]: 4.4 ± 0.5 µg/mL (≈ 14.3 µM)
- MBC/MIC [6]: 2.7
- MBC [6]: 15.6 ± 3.1 µg/mL (≈ 50.7 µM)
- MIC [6]: 5.7 ± 0.3 µg/mL (≈ 18.5 µM)
- MBC/MIC [7]: 5.0
- MBC [7]: 14.1 ± 3.9 µg/mL (≈ 45.8 µM)
- MIC [7]: 2.8 ± 0.9 µg/mL (≈ 9.1 µM)
- MIC [8]: > 25 µg/mL
- MBC/MIC [9]: 4.7
- MBC [9]: 8.3 ± 2.1 µg/mL (≈ 27 µM)
- MIC [9]: 1.8 ± 0.9 µg/mL (≈ 5.85 µM)
- MBC/MIC [10]: 4.5
- MBC [10]: 1.2 ± 0.4 µg/mL (≈ 3.9 µM)
- MIC [10]: 0.3 ± 0.2 µg/mL (≈ 0.975 µM)
- EC50 (MHS): 22.6 µg/mL (≈ 73.4 µM)
- EC50/MIC ratio (HeLa cells [13]): 15–20
- EC50 (HeLa cells [12]): 41.4 µg/mL (≈ 135 µM)

Compound: CCCc1ccc(Oc2ccc(S(C)(=O)=O)cc2)c(O)c1 [Compound 44, 2-(4-Methanesulfonylphenoxy)-5-propylphenol]
- IC50 ([11]; IC50): 2200 ± 300 nM
- MIC (ΔANR B. anthracis [1]; Bacillus anthracis): 61.3 µg/mL (≈ 200 µM)

Compound: CCCc1ccc(Oc2cccc(N(C)C)c2)c(O)c1 [Compound 45, 2-(3-Dimethylaminophenoxy)-5-propylphenol]
- inhibition at 1 µM [11]: 12.6%
- MIC (ΔANR B. anthracis [1]; Bacillus anthracis): 13.6 µg/mL (≈ 50.1 µM)

Compound: CCCc1ccc(Oc2cccc(C(F)(F)F)c2)c(O)c1 [Compound 46, 5-Propyl-2-(3-trifluoromethylphenoxy)phenol]
- IC50 [11]: 1240 nM
- MIC (ΔANR B. anthracis [1]; Bacillus anthracis): 7.4 µg/mL (≈ 25 µM)

Compound: CCCc1ccc(Oc2cccc(C=CC(=O)OC)c2)c(O)c1 [Compound 48, 3-[3-(2-Hydroxy-4-propylphenoxy)phenyl]acrylic acid methyl ester]
- IC50 ([11]; IC50): > 6250 nM
- MIC (ΔANR B. anthracis [1]; Bacillus anthracis): 2 µg/mL (≈ 6.4 µM)

Compound: CCCc1ccc(Oc2cccc(CCC(=O)OC)c2)c(O)c1 [Compound 49, 3-[3-(2-Hydroxy-4-propylphenoxy)phenyl]propionic acid methyl ester]
- IC50 ([11]; IC50): 7500 ± 1900 nM
- MIC (ΔANR B. anthracis [1]; Bacillus anthracis): 7.9 µg/mL (≈ 25.1 µM)

Compound: CCCc1ccc(Oc2cccc(CCC(=O)O)c2)c(O)c1 [Compound 51, 3-[3-(2-Hydroxy-4-propylphenoxy)phenyl]propionic acid]
- inhibition at 1 µM [11]: 17.6%
- MIC (ΔANR B. anthracis [1]; Bacillus anthracis): 60.1 µg/mL (≈ 200 µM)

Compound: Oc1cc(Cl)ccc1Oc1ccc(Cl)cc1Cl [Triclosan]
- MIC (ΔANR B. anthracis [1]; Bacillus anthracis): 3.1 µg/mL (≈ 10.7 µM)
- MIC (ΔANR B. anthracis [14]): 3.1 µg/mL (≈ 10.7 µM)
- IC50 (ENR in S. aurues): 70 nM
- IC50 (PfENR): 73 nM
- IC50 (ENR in E. coli): 7250 nM
